# Tests used:
# HeLa S-3 cells = experiment: HeLa GI50 determination (SRB growth inhibition); format: cell-based, human; conditions: Homo sapiens, HeLa S3, 48 h, read-out: HeLa Cells GI50 (nM)
# In short: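 Cells plated at 2×10^4/well; day-0 plate TCA-fixed, test compounds added at 10-fold dilutions for 2 days. SRB staining, absorbance at 490 nm; GI = 100×(T−T0)/(C−T0), GI50 from growth inhibition vs. concentration plots.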
# MCF-7 cells = experiment: MCF-7 GI50 determination (crystal violet growth inhibition); format: cell-based, human; conditions: Homo sapiens, MCF7, 96 h, read-out: MCF-7 Cells GI50 (nM)
# In short: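 MCF-7 cells seeded at 2×10^4 cells/well, grown 24 h drug-free, then exposed to 10-fold compound dilutions for 4 days. Glutaraldehyde-fixed cells stained with crystal violet, absorbance read at 570 nm; GI=100×(T/T0) against day-0 control OD, GI50 from growth inhibition versus concentration plots.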
# MCF7 = experiment: NCI 60-cell line growth inhibition assay: MCF7; format: cell-based; conditions: Homo sapiens
# MDA-MB-435 = experiment: NCI 60-cell line growth inhibition assay: MDA-MB-435; format: cell-based; conditions: Homo sapiens
# NCI/ADR-RES = format: cell-based; conditions: Homo sapiens
# SF-268 = experiment: NCI 60-cell line growth inhibition assay: SF-268; format: cell-based; conditions: Homo sapiens, CNS
# Description: (§1) The following data in Table 4 summarize the growth inhibition properties of several compounds of the present invention against 60-human transformed cell lines.
# SF-295 = experiment: NCI 60-cell line growth inhibition assay: SF-295; format: cell-based; conditions: Homo sapiens
# SF-539 = experiment: NCI 60-cell line growth inhibition assay: SF-539; format: cell-based; conditions: Homo sapiens
# SNB-19 = experiment: NCI 60-cell line growth inhibition assay: SNB-19; format: cell-based; conditions: Homo sapiens
# U251 = experiment: NCI 60-cell line growth inhibition assay: U251; format: cell-based; conditions: Homo sapiens, U-251
# COLO 205 = experiment: NCI 60-cell line growth inhibition assay: COLO 205; format: cell-based; conditions: Homo sapiens
# HCC-2998 = experiment: NCI 60-cell line growth inhibition assay: HCC-2998; format: cell-based; conditions: Homo sapiens, HCC 2998
# HCT-116 = experiment: NCI 60-cell line growth inhibition assay: HCT-116; format: cell-based; conditions: Homo sapiens
# HCT-15 = experiment: NCI 60-cell line growth inhibition assay: HCT-15; format: cell-based; conditions: Homo sapiens
# HT29 = experiment: NCI 60-cell line growth inhibition assay: HT29; format: cell-based; conditions: Homo sapiens, HT-29
# KM12 = experiment: NCI 60-cell line growth inhibition assay: KM12; format: cell-based; conditions: Homo sapiens
# SW-620 = experiment: NCI 60-cell line growth inhibition assay: SW-620; format: cell-based; conditions: Homo sapiens
# CCRF-CEM = experiment: NCI 60-cell line growth inhibition assay: CCRF-CEM; format: cell-based; conditions: Homo sapiens, Leukemia
# Description: as §1
# RPMI-8226 = experiment: NCI 60-cell line growth inhibition assay: RPMI-8226; format: cell-based, human
# Description: as §1
# LOX IMVI = experiment: NCI 60-cell line growth inhibition assay: LOX IMVI; format: cell-based; conditions: Homo sapiens
# SK-MEL-5 = experiment: NCI 60-cell line growth inhibition assay: SK-MEL-5; format: cell-based; conditions: Homo sapiens
# UACC-257 = experiment: NCI 60-cell line growth inhibition assay: UACC-257; format: cell-based; conditions: Homo sapiens
# A549/ATCC = experiment: NCI 60-cell line growth inhibition assay: A549/ATCC; format: cell-based; conditions: Homo sapiens, A549
# EKVX = experiment: NCI 60-cell line growth inhibition assay: EKVX; format: cell-based; conditions: Homo sapiens
# NCI-H460 = format: cell-based; conditions: Homo sapiens
# NCI-H522 = format: cell-based; conditions: Homo sapiens
# OVCAR-3 = experiment: NCI 60-cell line growth inhibition assay: OVCAR-3; format: cell-based; conditions: Homo sapiens
# OVCAR-8 = experiment: NCI 60-cell line growth inhibition assay: OVCAR-8; format: cell-based; conditions: Homo sapiens
# SK-OV-3 = experiment: NCI 60-cell line growth inhibition assay: SK-OV-3; format: cell-based; conditions: Homo sapiens
# DU-145 = experiment: NCI 60-cell line growth inhibition assay: DU-145; format: cell-based; conditions: Homo sapiens
# PC-3 = experiment: NCI 60-cell line growth inhibition assay: PC-3; format: cell-based; conditions: Homo sapiens
# ACHN = experiment: NCI 60-cell line growth inhibition assay: ACHN; format: cell-based; conditions: Homo sapiens
# CAKI-1 = experiment: NCI 60-cell line growth inhibition assay: CAKI-1; format: cell-based; conditions: Homo sapiens
# SN12C = experiment: NCI 60-cell line growth inhibition assay: SN12C; format: cell-based; conditions: Homo sapiens
# TK-10 = experiment: NCI 60-cell line growth inhibition assay: TK-10; format: cell-based; conditions: Homo sapiens
# [1] = Homo sapiens, Leukemia, RPMI-8226
SMILES,GI50 (HeLa S-3 cells) [nM],GI50 (MCF-7 cells) [nM],GI50 (MCF7) [nM],GI50 (MDA-MB-435) [nM],GI50 (NCI/ADR-RES) [nM],GI50 (SF-268) [nM],GI50 (SF-295) [nM],GI50 (SF-539) [nM],GI50 (SNB-19) [nM],GI50 (U251) [nM],GI50 (COLO 205) [nM],GI50 (HCC-2998) [nM],GI50 (HCT-116) [nM],GI50 (HCT-15) [nM],GI50 (HT29) [nM],GI50 (KM12) [nM],GI50 (SW-620) [nM],GI50 (CCRF-CEM) [nM],GI50 (RPMI-8226; [1]) [nM],GI50 (LOX IMVI) [nM],also measured
"CCCC(=O)/C=C/c1ccc2[nH]c3c(c2c1)CCN1C[C@H](C[C@@](O)(CC)C1)C[C@]3(C(=O)OC)c1cc2c(cc1OC)N(C)[C@H]1[C@@](O)(C(=O)OC)[C@H](OC(C)=O)[C@]3(CC)C=CCN4CC[C@]21[C@@H]43 [Example 29, 12′-(3-oxohex-1-enyl)vinblastine]",515,515,10.5,34.3,18100,901,568,21,< 10,< 10,< 10,< 10,< 10,274,< 10,212,1300,28.8,14.1,< 10,GI50 (SK-MEL-5): 420 nM; GI50 (UACC-257): 19300 nM; GI50 (A549/ATCC): 28.7 nM; GI50 (EKVX): 10800 nM; GI50 (NCI-H460): 176 nM; GI50 (NCI-H522): 31.4 nM; GI50 (OVCAR-3): 59.7 nM; GI50 (OVCAR-8): 22.6 nM; GI50 (SK-OV-3): 16.9 nM; GI50 (DU-145): 15.2 nM; GI50 (PC-3): 44.2 nM; GI50 (ACHN): 93.7 nM; GI50 (CAKI-1): 1200 nM; GI50 (SN12C): < 10 nM; GI50 (TK-10): 3240 nM
"CC[C@]1(O)C[C@H]2CN(CCc3c([nH]c4ccc(C#Cc5ccccc5)cc34)[C@@](C(=O)OC)(c3cc4c(cc3OC)N(C)[C@H]3[C@@](O)(C(=O)OC)[C@H](OC(C)=O)[C@]5(CC)C=CCN6CC[C@]43[C@@H]65)C2)C1 [Example 19, 12′-(2-phenylethynyl) vinblastine]",> 1000,800,396,60.5,1440,731,293,1790,1790,9970,1190,182,300,8350,423,206,1770,263,252,> 100000,GI50 (SK-MEL-5): 757 nM; GI50 (UACC-257): 46000 nM; GI50 (A549/ATCC): 37300 nM; GI50 (EKVX): 2790 nM; GI50 (NCI-H460): 353 nM; GI50 (NCI-H522): 1810 nM; GI50 (OVCAR-3): 207 nM; GI50 (OVCAR-8): 32200 nM; GI50 (SK-OV-3): 1880 nM; GI50 (DU-145): 2460 nM; GI50 (PC-3): 280 nM; GI50 (ACHN): 22000 nM; GI50 (CAKI-1): 557 nM; GI50 (SN12C): 2470 nM; GI50 (TK-10): 313 nM
"CCC1=C[C@H]2CN(CCc3c([nH]c4ccc(Br)cc34)[C@@](C(=O)OC)(c3cc4c(cc3OC)N(C)[C@H]3[C@@](O)(C(=O)OC)[C@H](OC(C)=O)[C@]5(CC)C=CCN6CC[C@]43[C@@H]65)C2)C1 [Example 97, 12′-bromoanhydro vinblastine]",30,50,< 10,< 10,77.9,< 10,< 10,< 10,< 10,< 10,< 10,< 10,< 10,< 10,< 10,< 10,< 10,< 10,< 10,< 10,"GI50 (RPMI-8226; Renal, RPMI-8226 (last line of Table 4, repeats the Leukemia line)): < 10 nM; GI50 (SK-MEL-5): < 10 nM; GI50 (UACC-257): 3950 nM; GI50 (A549/ATCC): < 10 nM; GI50 (EKVX): 10200 nM; GI50 (NCI-H460): < 10 nM; GI50 (NCI-H522): < 10 nM; GI50 (OVCAR-3): < 10 nM; GI50 (OVCAR-8): < 10 nM; GI50 (SK-OV-3): < 10 nM; GI50 (DU-145): < 10 nM; GI50 (PC-3): < 10 nM; GI50 (ACHN): 64.1 nM; GI50 (CAKI-1): 589 nM; GI50 (SN12C): < 10 nM; GI50 (TK-10): < 10 nM"
